Counter-ions that a name gives are not always drawn. Like-named read-outs stand apart in the source and are kept apart here.
Target: T1, IRAK4 (Homo sapiens, UniProt Q9NWZ3)
T1 sequence (Q9NWZ3 1-460): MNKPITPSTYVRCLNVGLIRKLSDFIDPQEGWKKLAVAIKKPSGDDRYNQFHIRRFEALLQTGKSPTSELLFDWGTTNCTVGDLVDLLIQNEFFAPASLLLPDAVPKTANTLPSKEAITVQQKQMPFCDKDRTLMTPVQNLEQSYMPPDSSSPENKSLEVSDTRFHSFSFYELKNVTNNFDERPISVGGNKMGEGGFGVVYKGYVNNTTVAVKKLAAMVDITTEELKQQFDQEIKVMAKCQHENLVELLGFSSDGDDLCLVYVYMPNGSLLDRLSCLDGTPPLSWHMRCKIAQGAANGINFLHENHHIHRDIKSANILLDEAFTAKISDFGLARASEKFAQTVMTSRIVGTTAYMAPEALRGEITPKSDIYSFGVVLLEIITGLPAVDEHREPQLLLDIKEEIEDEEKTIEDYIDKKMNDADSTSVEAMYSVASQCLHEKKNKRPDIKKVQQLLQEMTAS
Assay: biochemical

[1] = IRAK4 Biochemical Assay (1 mM ATP, 2 h) IC50 (μM), 1 mM ATP, 2 h, 100 pM IRAK4

Protocol: The 2-hour 10 μM ATP Biochemical Assay employs a MesoScale Detection (MSD) format.
The activity is quenched with 11 μl of 70 mM EDTA, pH 8.
To detect the phosphorylated biotinylated peptide substrate, 30 μl of the quenched reaction mixture is added to equivalent wells of a 384 well streptavidin coated MesoScale plate (Meso Scale Discovery #L21SA-1). After a 1 hour incubation of the plate for 1 hour at room temperature with gentle mixing, the plate wells are washed 3 times with 50 mM Tris, pH 7.5, 150 mM NaCl, 0.02% Tween-20.
A 25 μl volume of 1:500 anti-P-Threonine Rabbit polyclonal Antibody plus 1:500 Goat-anti-Rabbit Sulfo Tag Antibody (Meso Scale Discovery R32AB-1) in 50 mM Tris, pH 7.5, 150 mM NaCl, 0.02% Tween-20 plus 2% BSA is then added to each well. After a 1-hour incubation of the plate for 1 hour at room temperature with gentle mixing, the plate wells are washed, 3 times with 50 mM Tris, pH 7.5, 150 mM NaCl, 0.02% Tween-20.
The 2-hour 1 mM ATP IRAK4 Biochemical assay was performed as described above, but with 100 pM IRAK4 and 1 mM ATP.

Row | Structure (SMILES) | IC50 [µM] | IC50 [1] [µM]
1 | CC12CC(c3cn4cc(C(=O)Nc5cccc(C(F)F)n5)ncc4n3)(CO1)C2 [Example 334, N-(6-(Difluoromethyl)pyridin-2-yl)-2-(1-methyl-2-oxabicyclo[2.1.1]hexan-4-yl)imidazo[1,2-a]pyrazine-6-carboxamide] | 0.0599 | 
2 | Cn1ccc(NC(=O)c2cn3cc(C45CCC(C)(CC4)OC5)nc3cc2OC2CCC2)n1 [Example 570, 7-Cyclobutoxy-N-(1-methyl-1H-pyrazol-3-yl)-2-(1-methyl-2-oxabicyclo[2.2.2]octan-4-yl)imidazo[1,2-a]pyridine-6-carboxamide] | 0.0004 | 
3 | CCOc1nc(C(=O)Nc2cccc(C(F)F)n2)cn2cc(C34COC(C)(C3)C4)nc12 [Example 226] | 0.0024 | 
4 | CCOc1cc2nc(C3(OC)CC3)cn2cc1C(=O)Nc1cccc(C(F)F)n1 [Example 390, N-(6-(difluoromethyl)pyridin-2-yl)-7-ethoxy-2-(1-methoxy-cyclopropyl)imidazo[1,2-a]pyridine-6-carboxamide hydrochloride] |  | 0.009
5 | CC12CC(c3cn4cc(C(=O)Nc5cccn(C(F)F)c5=O)c(OCCF)cc4n3)(CO1)C2 [Example 438, N-(1-(difluoromethyl)-2-oxo-1,2-dihydropyridin-3-yl)-7-(2-fluoroethoxy)-2-(1-methyl-2-oxabicyclo[2.1.1]hexan-4-yl)imidazo[1,2-a]pyridine-6-carboxamide] | 0.0015 | 
6 | CC(C)Oc1cc2nccn2cc1C(=O)Nc1cccc(C(F)F)n1 [Example 220] | 0.0115 | 
7 | Cc1cnc2c(NC(=O)c3cn4cc(C56COC(C)(C5)C6)nc4c(F)c3OC3CCC3)cnn2c1 [Example 256, 7-Cyclobutoxy-8-fluoro-2-(1-methyl-2-oxabicyclo[2.1.1]hexan-4-yl)-N-(6-methylpyrazolo[1,5-a]pyrimidin-3-yl)imidazo[1,2-a]pyridine-6-carboxamide] | 0.0009 | 
8 | CCCOc1nc(C(=O)Nc2cccc(C(F)F)n2)cn2cc(C3CCOCC3)nc12 [Example 335, N-(6-(difluoromethyl)pyridin-2-yl)-8-propoxy-2-(tetrahydro-2H-pyran-4-yl)imidazo[1,2-a]pyrazine-6-carboxamide] | 0.0006 | 
9 | CC12CC(c3cn4cc(C(=O)Nc5cccn(C(F)F)c5=O)c(OC5CCCC5)cc4n3)(CO1)C2 [Example 457, 7-(Cyclopentyloxy)-N-(1-(difluoromethyl)-2-oxo-1,2-dihydropyridin-3-yl)-2-(1-methyl-2-oxabicyclo[2.1.1]hexan-4-yl)imidazo[1,2-a]pyridine-6-carboxamide] | 0.0002 | 
10 | COc1cc2nc(C3CCOCC3)cn2cc1C(=O)Nc1csnc1C [Example 108] | 0.0669 | 
11 | Cn1cc(-c2cccc(NC(=O)c3cn4cc(C56COC(C)(C5)C6)nc4cc3OC3CCC3)n2)cn1 [Example 520, 7-Cyclobutoxy-N-(6-(1-methyl-1H-pyrazol-4-yl)pyridin-2-yl)-2-(1-methyl-2-oxabicyclo[2.1.1]hexan-4-yl)imidazo[1,2-a]pyridine-6-carboxamide] | 0.0001 | 
12 | COc1ncccc1NC(=O)c1cn2cc(C34CCC(C3)OC4)nc2cc1OC(C)C (stereo not shown) [Example 249] | 0.0007 | 
13 | CC(C)Oc1nc2nc(C34CCC(C)(CC3)OC4)cn2cc1C(=O)Nc1cccn(C(F)F)c1=O [Example 384, N-(1-(difluoromethyl)-2-oxo-1,2-dihydropyridin-3-yl)-7-isopropoxy-2-(1-methyl-2-oxabicyclo[2.2.2]octan-4-yl)imidazo[1,2-a]pyrimidine-6-carboxamide] | 0.0002 | 
14 | CC12CCC(c3cn4cc(C(=O)Nc5ccn(C(F)F)n5)c(OC5CCC5)cc4n3)(CO1)C2 (stereo not shown) [Example 418, 7-Cyclobutoxy-N-(1-(difluoromethyl)-1H-pyrazol-3-yl)-2-(1-methyl-2-oxabicyclo[2.2.1]heptan-4-yl)imidazo[1,2-a]pyridine-6-carboxamide] | 0.0021 | 
15 | CCOc1nc(C(=O)Nc2ccc(F)cc2OC)cn2cc(C34COC(C)(C3)C4)nc12 [Example 491, 8-Ethoxy-N-(4-fluoro-2-methoxyphenyl)-2-(1-methyl-2-oxabicyclo[2.1.1]hexan-4-yl)imidazo[1,2-a]pyrazine-6-carboxamide] | 0.0023 | 
16 | CCOc1nc(C(=O)Nc2cccnc2OC)cn2cc(C34CCC(C)(C3)OC4)nc12 (stereo not shown) [Example 276, 8-Ethoxy-N-(2-methoxypyridin-3-yl)-2-(1-methyl-2-oxabicyclo[2.2.1]heptan-4-yl)imidazo[1,2-a]pyrazine-6-carboxamide trifluoroacetate] |  | 0.0009
17 | CC(C)Oc1cc2nc(C(F)F)cn2cc1C(=O)Nc1cccc(C(F)F)n1 [Example 99] | 0.0073 | 
18 | CCOc1nc(C(=O)Nc2cccc(C(F)F)n2)cn2cc(C3CCOCC3)nc12 [Example 207, N-[6-(difluoromethyl)-2-pyridyl]-8-ethoxy-2-tetrahydropyran-4-ylimidazo[1,2-a]pyrazine-6-carboxamide trifluoroacetate] |  | 0.0147
19 | COc1cc2nc(C3CCOCC3)cn2cc1C(=O)Nc1cnn(C)c1C [Example 194] | 0.624 | 
20 | COc1cc2nc(C3CCOCC3)cn2cc1C(=O)Nc1ccn(CCF)n1 [Example 190] | 0.111 | 
21 | CC(C)Oc1cc2nc(C34COC(C)(C3)C4)cn2cc1C(=O)Nc1ccnc2cccnc12 [Example 319, 7-Isopropoxy-2-(1-methyl-2-oxabicyclo[2.1.1]hexan-4-yl)-N-(1,5-naphthyridin-4-yl)imidazo[1,2-a]pyridine-6-carboxamide] | 0.0016 | 
22 | CC12CC(c3cn4cc(C(=O)Nc5cccc(C(F)F)n5)c(OC5CC5)nc4n3)(CO1)C2 [Example 312, 7-Cyclopropoxy-N-(6-(difluoromethyl)pyridin-2-yl)-2-(1-methyl-2-oxabicyclo[2.1.1]hexan-4-yl)imidazo[1,2-a]pyrimidine-6-carboxamide trifluoroacetate] |  | 0.0021
23 | COc1cccc(NC(=O)c2cn3cc(C4CCOCC4)nc3c(OC)n2)n1 [Example 77] |  | 0.074
24 | CC(C)Oc1nc2nc([C@]34CC[C@](C)(C3)OC4)cn2cc1C(=O)Nc1cnn2cccnc12 (single isomer, unassigned) [Example 613] | 0.0005 | 
25 | Cn1ccc(NC(=O)c2cn3cc(C45COC(C)(C4)C5)nc3nc2OCC2CC2)n1 [Example 370, 7-(Cyclopropylmethoxy)-N-(1-methyl-1H-pyrazol-3-yl)-2-(1-methyl-2-oxabicyclo[2.1.1]hexan-4-yl)imidazo[1,2-a]pyrimidine-6-carboxamide] | 0.0016 | 
26 | Cc1ccn2ncc(NC(=O)c3cn4cc(C56COC(C)(C5)C6)nc4nc3OC(C)C)c2n1 [Example 374, 7-Isopropoxy-2-(1-methyl-2-oxabicyclo[2.1.1]hexan-4-yl)-N-(5-methyl-pyrazolo[1,5-a]pyrimidin-3-yl)imidazo[1,2-a]pyrimidine-6-carboxamide] | 0.0014 | 
27 | CCOc1nc(C(=O)Nc2ccn(C(F)F)n2)cn2cc(C34COC(C)(C3)C4)nc12 [Example 490, N-(1-(difluoromethyl)-1H-pyrazol-3-yl)-8-ethoxy-2-(1-methyl-2-oxabicyclo[2.1.1]hexan-4-yl)imidazo[1,2-a]pyrazine-6-carboxamide] | 0.0065 | 
28 | CC(C)Oc1cc2nc(C3CCOCC3)cn2cc1C(=O)Nc1cccc(C(F)F)n1 [Example 92, N-(6-(difluoromethyl)pyridin-2-yl)-7-isopropoxy-2-(tetrahydro-2H-pyran-4-yl)imidazo[1,2-a]pyridine-6-carboxamide] |  | 0.0003

Reference: patent US20230087118A1, “IMIDAZO[1,2-a][sequence] DERIVATIVES AND THEIR USE IN THE TREATMENT OF DISEASE” (priority 2019, published 2023)
